Experiments:
NPM/ALK+ Karpas299 cells = experiment: NPM/ALK+ Karpas299 tumour growth in SCID mice; type: in vivo; settings: oral gavage, 150 mg/kg twice per day, subcutaneous Karpas299 tumors in SCID mice
Method: The in vivo studies were approved by the Italian Ministry of Research and by the University internal ethical committee, and were run according to guidelines to reduce animal pain. Ten million NPM/ALK+ Karpas299 cells were injected subcutaneously in the right flank of SCID mice. Ten days later, when the tumors reached the size of 100 mm3 on average, mice were randomized either to control arm, receiving vehicle only (0.5% carboxymethylcellulose and 0.1% Tween80), or to treatment arm, receiving compound R533 by oral gavage, 150 mg/kg twice per day. Tumor size was measured bi-weekly by a caliper. General toxicity was assessed by monitoring weight loss, and by visual inspection for any sign of stress or suffering, including eye closure or bulging, ruffled/dull fur, reduced mobility, drowsiness, diarrhea.

[1] = test system: parental untransformed BaF3 cells; experiment: Tritiated thymidine uptake cell proliferation assay, parental BaF3; type: cell-based; settings: Mus musculus, BaF3; 3H-thymidine uptake, 72 h, medium with IL-3

CN1CCN(c2ccc(-c3ccc4[nH]c5nccc(-c6ccc(Cc7ccccc7)cc6)c5c4c3)cc2)CC1 [Example 16, 4-(4-Benzylphenyl)-6-[4-(4-methylpiperazin-1-yl)-phenyl]-9H-pyrido[2,3-b]indole] was tested, and the “Tumor size (tumour growth curves)” value (NPM/ALK+ Karpas299 cells) was “remarkable effect” and the IC50 [1] was 8.7 µM.

Source: patent US9428500B2, “Alpha-carbolines for the treatment of cancer” (UNIVERSITA' DEGLI STUDI DI MILANO—BICOCCA, priority 2012, dated 2016)
